Usually EC50 stands for the concentration needed to bring the measured effect to its halfway point.

Test [1] concerns SARS-CoV-2. The test is described as follows: Antiviral activity against SARS-CoV-2 harboring NSP5 E166A mutant infected in human A549-ACE2 cells measured after 48 hrs by RT-PCR analysis. The format is functional, organism-based, Severe acute respiratory syndrome coronavirus 2.
Test [2] relates to SARS-CoV-2. The test is described as follows: Antiviral activity against SARS-CoV-2 harboring recombinant live-attenuated delta3678 mGFP infected in human A549-ACE2 cells measured after 48 hrs by RT-PCR analysis. The format is functional, organism-based. The settings on record: Severe acute respiratory syndrome coronavirus 2, A549-ACE2, 48 h.

With `C[C@@H](OC(C)(C)C)[C@H](NC(=O)OCc1cccc(OCCCCCCOc2cccc3c2C(=O)N(C2CCC(=O)NC2=O)C3=O)c1)C(=O)N[C@@H](CC1CCCCC1)C(=O)N[C@H](C=O)C[C@@H]1CCNC1=O` (some centres not stated), the concentration giving a half-maximal response (EC50) came to 460 nM in the test with SARS-CoV-2 [1] and 2200 nM with SARS-CoV-2 [2].

The values are drawn from ChEMBL document CHEMBL5543148, “Discovery of First-in-Class PROTAC Degraders of SARS-CoV-2 Main Protease” (J Med Chem, 2024).
